The record followed here is patent US20080305066A1, “2-C-Substituted Propane-1,3-Dicarbonyl Compounds and Their Use in Neutralising Malodour” (GIVAUDAN SA, priority 2005, published 2008).

Structures are written as SMILES.

Data set [1] can be described thus: Neutralization of propyl mercaptane (headspace GC-MS). Conditions: 0.25 ml 4 mM test compound + 0.25 ml 4 mM propyl mercaptane in dimethylsulfoxide/H2O 1:1, room temperature, 3 h, vs blank samples. The procedure:
A 23×75 mm-headspace vial is charged with 0.25 ml of a 4 mM-solution of the test compound in dimethylsulfoxide/H2O 1:1. One blank sample containing 0.25 ml of dimethylsulfoxide/H2O 1:1 is prepared per 3 test samples. The vials are sealed with a 20 mm-aluminium seal containing a rubber septum. At 15 min-intervals (which is the time of 1 GC-analysis run) 0.25 ml of a 4 mM-solution of propyl mercaptane in dimethylsulfoxide/H2O 1:1 is added to each sample via cannula.
The samples are left at room temperature for 3 h, then submitted to headspace analysis using a headspace auto sampler connected to a GC-MS apparatus. Per sample 250 μl of headspace is injected. The peak areas (MS-ion current) of propyl mercaptane is compared to the averaged value from the blank samples to calculate the reduction of headspace concentration.

A short description of data set [2]: Neutralization of human sweat in aqueous environment, two chamber sample (headspace GC-MS). The following applies: 5.0 μmol test compound on viscose filter, 16 h at 35° C., vs blank samples; for % Headspace reduction of malodours compounds: 3-mercapto-1-butanol: aqueous 3-mercapto-1-butanol (17 mM) with 3-methyl hexanoic acid (23 mM); for % Headspace reduction of malodours compounds: 3-methyl hexanoic acid: aqueous 3-methyl hexanoic acid (23 mM) with 3-mercapto-1-butanol (17 mM). How it is done:
A two chamber sample was prepared as depicted in FIG. 1. It is composed of the headspace vial (1′) described in example 26 as the outer containment and a standard HPLC-auto sampler vial (2′) as the inner containment. The test compound (5.0 μmol) is absorbed on viscose filter (3′) (applied as CH2Cl2-solution and let evaporate). An amount of 100 ul of an aqueous solution of 3-methyl hexanoic acid (23 mM) and 3-mercapto-1-butanol (17 mM), is placed on the bottom of the inner vial (2′). A screw cap containing the filter (3′) is screwed tightly on the HPLC-vial (2′), which is placed in the headspace vial (1′). The headspace vial is closed with an aluminium seal containing a rubber septum (5′). Blank samples containing an empty filter (3′) and the aqueous solution of 3-methyl hexanoic acid and 3-mercapto-1-butanol in the inner vial as described above are prepared (1 blank per 3 test samples). The samples are left standing for 16 h at 35° C., then submitted to headspace analysis as described in example 26.
The malodourant compounds (3-methyl hexanoic acid and 3-mercapto-1-butanol) diffuse through the filter into the outer volume (6′). Therefore a compound of formula 1 (neutralizing substance) applied on the filter (3′) will reduce the headspace concentration of the sweat malodourants in the outer volume compared to the blank samples.

Data set [3] can be described thus: Olfactory evaluation against sweat-malodour reconstitution (panel test). Conditions: 50 μl of 1% solution in ethanol on malodour treated cotton swatch; LMS rating, expert panel of 20 assessors; relative to swatch without test compound. The procedure: An ethanolic solution of axilla-malodour reconstitution is applied on a 1×1 cm cotton swatch (100 ∥l, 0.1% wt/wt), then 50 μl of the test compound (1% solution in ethanol) are dosed to the malodour treated swatches. The malodour intensity is rated on a LMS (labelled magnitude scale) by an expert panel of 20 assessors. The results are then expressed in % reduction relative to malodour of a swatch without adding a test compound.

For the compound `CCCC(=O)/C(=C/C(=O)OCC)C(=O)OCC`, the “% Headspace Reduction” value in data set [1] was 100%.

`CCOC(=O)C(O)C(C(C)=O)C(=O)OC(C)(C)C` (stereo not shown): the “% Headspace Reduction” value in data set [1] came to 45%.

As to `CC(=O)C(=CC(C)CCC=C(C)C)C(C)=O` (stereo not shown), in data set [1], the “% Headspace Reduction” value is listed as 8%.

For the compound `CCOC(=O)C(O)C(C(C)=O)C(=O)OCC` (stereo not shown), the “% Headspace Reduction” value in data set [1] was 62%.

`CCOC(=O)C(C)=C(C(=O)OCC)C(=O)OCC`: in data set [1], the “% Headspace Reduction” value is 20%.

Consider `CC(=O)C(=CC(C)C)C(C)=O`, for which the “% Headspace Reduction” value in data set [1] is 34%.

As to `CCOC(=O)C(OCC)C(C(C)=O)C(C)=O` (stereo not shown), in data set [1], the “% Headspace Reduction” value is given as 82%.

With `CCOC(=O)C(OCC)C(C(C)=O)C(=O)c1ccccc1` (stereo not shown), the “% Headspace Reduction” value in data set [1] turned out to be 22%.

Consider `CCOC(=O)C(OC)C(C(C)=O)C(=O)OCC` (stereo not shown), for which the “% Headspace Reduction” value in data set [1] amounted to 54%.

For `CCCC(=O)C(C(=O)OCC)C(OCC)C(=O)OCC` (stereo not shown), the “% Headspace Reduction” value in data set [1] is reported as 38%.

Regarding `CCOC(=O)C(O)C(C(=O)OCC)C(=O)c1ccccc1` (stereo not shown), the “% Headspace Reduction” value in data set [1] was 20%.

In the case of `CCOC(=O)C(OCC)C(C(=O)OCC)C(=O)c1ccccc1` (stereo not shown), in data set [1], the “% Headspace Reduction” value is 10%.

With `CCOC(=O)C(O)C(C(=O)OC)C(=O)C(C)(C)C` (stereo not shown), in data set [1], the “% Headspace Reduction” value turned out to be 15%.

Turning to `CCOC(=O)/C=C(\C(C)=O)C(=O)c1ccccc1`, in data set [1], the “% Headspace Reduction” value came out at 100%.

Regarding `CCOC(=O)/C=C(\C(=O)OC)C(=O)C(C)(C)C`, the “% Headspace Reduction” value in data set [1] was 82%.

Take `CCCC(=O)/C(C(=O)OCC)=C(\O)C(=O)OCC`: the “% Headspace Reduction” value in data set [1] worked out at 15%.

`CCCCCCOC(=O)/C=C/C(=O)OCCCCCC` [DHF, Dihexylfumarate, reference compound]: in data set [1], the “% Headspace Reduction” value is 5%. Also, in data set [2], the “% Headspace reduction of malodours compounds: 3-mercapto-1-butanol” value (from here on “% Headspace reduction … 3-mercapto-1-butanol”) came to 10% and the “% Headspace reduction of malodours compounds: 3-methyl hexanoic acid” value (from here on “% Headspace reduction … 3-methyl hexanoic acid”) is on record as 0%. Besides, the “% Reduction of axilla malodour intensity in panel test” value (“% Reduction” below) in data set [3] came to 68%.

Take `CCOc1cc(C=C(C(C)=O)C(C)=O)ccc1O` [Example 7]: the melting point (commonly the temperature, or range, at which the solid turns liquid) is 126 to 128 °C.

Turning to `CCOC(=O)/C=C(/C(C)=O)C(=O)OCC` [drawing 36], the “% Headspace Reduction” value in data set [1] is given as 100%.

As to `CCOC(=O)C=C(C(C)=O)C(C)=O` [drawing 38], in data set [1], the “% Headspace Reduction” value is 100%.

As for `CCOC(=O)C(OCC)C(C(C)=O)C(=O)OCC` (stereo not shown) [drawing 42], the “% Headspace Reduction” value in data set [1] turned out to be 64%.

As to `CCOC(=O)/C=C(\C(=O)OCC)C(=O)c1ccccc1` [drawing 50], the “% Headspace Reduction” value in data set [1] is listed as 100%.

`CCCCCCCC=C(C(=O)OCC)C(=O)OCC` [drawing 55]: in data set [2], the “% Headspace reduction … 3-mercapto-1-butanol” value stood at 22% and the “% Headspace reduction … 3-methyl hexanoic acid” value amounted to 0%.

As to `CCCCCCC/C=C(/C(C)=O)C(=O)OCC` [drawing 56], in data set [2], the “% Headspace reduction … 3-mercapto-1-butanol” value stood at 35% and the “% Headspace reduction … 3-methyl hexanoic acid” value amounted to 10%.

Take `CCOC(=O)/C=C(/C(C)=O)C(=O)OCC` [drawing 57]: in data set [2], the “% Headspace reduction … 3-mercapto-1-butanol” value is given as 98% and the “% Headspace reduction … 3-methyl hexanoic acid” value was determined as 10%.

For `CCOC(=O)C=C(C(C)=O)C(C)=O` [drawing 58], in data set [2], the “% Headspace reduction … 3-mercapto-1-butanol” value came to 100% and the “% Headspace reduction … 3-methyl hexanoic acid” value was found to be 0%.

As for `CCOC(=O)C(OCC)C(C(C)=O)C(=O)OCC` (stereo not shown) [drawing 59], in data set [2], the “% Headspace reduction … 3-mercapto-1-butanol” value is given as 100% and the “% Headspace reduction … 3-methyl hexanoic acid” value worked out at 0%.

Consider `CCOC(=O)/C=C(\C(=O)OCC)C(=O)c1ccccc1` [drawing 60], for which, in data set [2], the “% Headspace reduction … 3-mercapto-1-butanol” value was 85% and the “% Headspace reduction … 3-methyl hexanoic acid” value is 28%.

Consider `CCOc1cc(C=C(C(C)=O)C(C)=O)ccc1O` [drawing 61], for which, in data set [2], the “% Headspace reduction … 3-mercapto-1-butanol” value stood at 41% and the “% Headspace reduction … 3-methyl hexanoic acid” value is listed as 9%.

As for `CCCCCCCC=C(C(=O)OCC)C(=O)OCC` [drawing 62], the “% Reduction” value in data set [3] is reported as 59%.

Consider `CCCCCCC/C=C(/C(C)=O)C(=O)OCC` [drawing 63], for which the “% Reduction” value in data set [3] was found to be 82%.

For `CCOC(=O)/C=C(/C(C)=O)C(=O)OCC` [drawing 64], the “% Reduction” value in data set [3] was determined as 76%.

Consider `CCOC(=O)C(OCC)C(C(C)=O)C(=O)OCC` (stereo not shown) [drawing 65], for which the “% Reduction” value in data set [3] came out at 67%.
